This is an account of results in BindingDB's records for doi:10.7270/Q2K64GGJ (University of Pittsburgh, 2006).

The target of the test is T1, Dual specificity protein phosphatase 1 (Homo sapiens, UniProt P28562).
T1 sequence (P28562 whole entry): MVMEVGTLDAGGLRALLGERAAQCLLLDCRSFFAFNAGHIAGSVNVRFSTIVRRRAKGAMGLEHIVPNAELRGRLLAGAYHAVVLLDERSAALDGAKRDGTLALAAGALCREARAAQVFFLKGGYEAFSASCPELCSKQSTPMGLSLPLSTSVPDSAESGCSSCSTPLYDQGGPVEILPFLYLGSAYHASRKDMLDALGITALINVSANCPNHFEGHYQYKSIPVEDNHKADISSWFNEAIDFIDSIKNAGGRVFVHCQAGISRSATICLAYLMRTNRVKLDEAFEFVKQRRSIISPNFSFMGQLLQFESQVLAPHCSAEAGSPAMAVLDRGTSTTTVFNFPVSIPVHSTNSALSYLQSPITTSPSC
As to the kind of experiment: DUSP1 dephosphorylation activity inhibition – biochemical, in vitro, dose response, specificity testing, selectivity assay, confirmation (AID 442).
As for `CC(C)Cn1c(N)c(C(=O)COC(=O)c2cc(-c3ccco3)nc3ccccc23)c(=O)n(C)c1=O` [2-(2-furanyl)-4-quinolinecarboxylic acid [2-[4-amino-1-methyl-3-(2-methylpropyl)-2,6-dioxo-5-pyrimidinyl]-2-oxoethyl] ester], the IC50 (usually the concentration that inhibits the measured activity by half) worked out at 16.8 µM. Consider `CCCCC[C@H](O)C=C[C@H]1C=CC(=O)[C@@H]1C/C=C\CCCC(=O)O` [(Z)-7-[(1R,5S)-2-oxidanylidene-5-[(E,3S)-3-oxidanyloct-1-enyl]cyclopent-3-en-1-yl]hept-5-enoic acid], for which the IC50 stood at 23.3 µM. Consider `COc1ccc(Cn2c(C)nc3c(c2=O)c2nc4ccccc4nc2n3Cc2ccco2)cc1` [MLS000079944], for which the IC50 is 18.1 µM. The compound `Cc1ccc2c(c1C)NC(C(=O)O)C1CC=CC21` (stereo not given) had an IC50 of 40.3 µM. For the compound `CCn1nc(-c2ccccc2)nc2c(=O)n(C)c(=O)nc1-2` [1-Ethyl-6-methyl-3-phenyl-1H-pyrimido[5,4-e][1,2,4]triazine-5,7-dione], half-maximal inhibition (IC50) was put at 0.19 µM.
